Among the test systems are A498; A549; CAKI-1; HCT-116; KM12; LOX IMVI; MCF7; MDA-MB-231; MDA-MB-435; MDA-N; MOLT-4; NCI-H226; OVCAR-5; SK-MEL-2; SN12C; SNB-19; SW-620; UACC-257; NCI-H460; HCC 2998.
What all share (experiment): NCI-60 cell line screen, 48 h

Experimental findings from ChEMBL document CHEMBL1201862, “PubChem BioAssay data set” (2004) are described below.

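Tested at 5 concentrations; 48 h exposure; 96-well plates; endpoints linearly interpolated, else capped at highest concentration. GI50 is the concentration that inhibits growth by half.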 Calls of active or inactive are those of the source. Rule as the data show it: active = GI50 up to about 1.1 µM and inactive = higher.

`COC1=CC(=O)C(O)=C(C[C@@]2(C)[C@@H]3CCC[C@H](COC(=O)CCCCCNC(=O)OC(C)(C)C)[C@@]3(C)CC[C@@H]2C)C1=O`: the GI50 is > 10 µM (inactive) in the experiment on A498; 3.59 µM (inactive) in the experiment on A549; 4.61 µM (inactive) with CAKI-1; 6.55 µM (inactive) in the experiment with HCT-116; > 10 µM (inactive) in the experiment on KM12; > 10 µM (inactive) in the experiment with LOX IMVI. Further, the GI50 in the experiment on MCF7 is 4.22 µM (inactive); in the experiment on MDA-MB-231, > 10 µM (inactive); in the experiment on MDA-MB-435 it was > 10 µM (inactive); in the experiment with MDA-N, > 10 µM (inactive); in the experiment on MOLT-4 it was 3.1 µM (inactive); in the experiment with NCI-H226, 8.45 µM (inactive). Also, the GI50 with OVCAR-5 is > 10 µM (inactive); in the experiment on SK-MEL-2 it was > 10 µM (inactive); in the experiment on SN12C, > 10 µM (inactive); in the experiment on SNB-19, 3.77 µM (inactive); in the experiment on SW-620, 6.34 µM (inactive); in the experiment on UACC-257 it was > 10 µM (inactive).
With `CC(C)CNC(=O)O`, the GI50 in the experiment with A498, in the experiment on A549, with CAKI-1, in the experiment on HCT-116, with KM12 and in the experiment with LOX IMVI was > 100 µM (inactive) each time. Further, the GI50 in the experiment on MCF7, in the experiment with MDA-MB-231, in the experiment with MDA-MB-435, in the experiment with MDA-N, in the experiment with MOLT-4 and in the experiment with NCI-H226 was > 100 µM (inactive) throughout. Moreover, the GI50 in the experiment with NCI-H460, in the experiment with OVCAR-5, in the experiment on SK-MEL-2, in the experiment on SN12C, in the experiment on SNB-19 and in the experiment on SW-620 was > 100 µM (inactive) in each case. Further, in the experiment with UACC-257, the GI50 is > 100 µM (inactive).
`CC(C)(C)c1cc(C(C)(C)C)c2sc(=O)oc2c1O`: the GI50 in the experiment with A498 was 13.7 µM (inactive); in the experiment on A549, 13.2 µM (inactive); in the experiment with CAKI-1, 12.4 µM (inactive); with HCT-116, 12.9 µM (inactive); with KM12, 14.1 µM (inactive); in the experiment with LOX IMVI, 14 µM (inactive). For the same compound, the GI50 is 12.6 µM (inactive) in the experiment on MCF7; 18.4 µM (inactive) with MDA-MB-231; 12.4 µM (inactive) in the experiment with MDA-MB-435; 13.5 µM (inactive) with MDA-N; 8.26 µM (inactive) with MOLT-4; 20.2 µM (inactive) in the experiment on NCI-H226. The GI50 in the experiment on NCI-H460 is 5.61 µM (inactive); with OVCAR-5, 18.5 µM (inactive); in the experiment on SK-MEL-2, 15.5 µM (inactive); in the experiment on SN12C it was 12.4 µM (inactive); with SNB-19, 17.3 µM (inactive); in the experiment on UACC-257, 5.71 µM (inactive).
As to `N#CCCN(CCC#N)c1ccc(/C=C2\N=C(c3ccccc3)N(NC(N)=S)C2=O)cc1`, the GI50 in the experiment with A498 was > 100 µM (inactive); in the experiment with A549, > 100 µM (inactive); with CAKI-1, > 100 µM (inactive); in the experiment on HCT-116 it was > 100 µM (inactive); in the experiment with KM12, 12.9 µM (inactive); in the experiment with LOX IMVI it was > 100 µM (inactive). For the same compound, the GI50 is > 100 µM (inactive) in the experiment on MCF7; > 100 µM (inactive) in the experiment on MDA-MB-231; 41.4 µM (inactive) in the experiment with MDA-MB-435; > 100 µM (inactive) in the experiment with MDA-N; > 100 µM (inactive) with MOLT-4; > 100 µM (inactive) in the experiment with NCI-H226. The GI50 in the experiment on NCI-H460, in the experiment on OVCAR-5, with SK-MEL-2, in the experiment with SN12C, in the experiment with SNB-19 and in the experiment on SW-620 was > 100 µM (inactive) throughout. In addition, the GI50 with UACC-257 was > 100 µM (inactive).
As to `O=C1CCCSCCCC(=O)CCCSCCC1`, the GI50 with A549, in the experiment with HCC 2998, in the experiment on HCT-116, with KM12, in the experiment on LOX IMVI and in the experiment on MCF7 was > 100 µM (inactive) in each case. Further, the GI50 in the experiment with MDA-MB-231, with MDA-MB-435, in the experiment with MDA-N, with MOLT-4, in the experiment on NCI-H460 and in the experiment on OVCAR-5 was > 100 µM (inactive) each time. Also, the GI50 in the experiment with SN12C, with SNB-19, in the experiment on SW-620 and with UACC-257 was > 100 µM (inactive) in each case.
For the compound `COc1cc(C2c3cc4c(cc3OC(NN=C(C)C)C2C)OCO4)cc(OC)c1O` (configuration not stated), the GI50 with A549 was 22.9 µM (inactive); in the experiment with CAKI-1 it was 61.5 µM (inactive); in the experiment on HCC 2998 it was 14.4 µM (inactive); in the experiment with HCT-116, 24.9 µM (inactive); with KM12 it was 21.2 µM (inactive); in the experiment on MCF7 it was 12.4 µM (inactive). The GI50 in the experiment with MDA-MB-231 was 27.9 µM (inactive); with MDA-MB-435 it was 1.24 µM (inactive); with MDA-N, 3 µM (inactive); in the experiment on NCI-H226, > 100 µM (inactive); in the experiment with OVCAR-5 it was 64.4 µM (inactive); in the experiment with SK-MEL-2, 8.61 µM (inactive). The GI50 in the experiment with SN12C was 8.39 µM (inactive); in the experiment on SNB-19, 85.5 µM (inactive); with SW-620, 6.93 µM (inactive); in the experiment on UACC-257, 89.3 µM (inactive).
Turning to `NC(C(F)(F)F)(C(F)(F)F)P(=O)(Cc1ccccc1)Cc1ccccc1`, the GI50 in the experiment on A549, with CAKI-1, in the experiment on HCC 2998, with HCT-116, with KM12 and in the experiment on LOX IMVI was > 100 µM (inactive) throughout. Further, the GI50 with MCF7, in the experiment on MDA-MB-231, in the experiment with MDA-MB-435, with MDA-N, in the experiment with MOLT-4 and with NCI-H460 was > 100 µM (inactive) each time. For the same compound, the GI50 in the experiment with OVCAR-5, in the experiment with SK-MEL-2, in the experiment with SN12C, in the experiment on SNB-19, in the experiment with SW-620 and with UACC-257 was > 100 µM (inactive) throughout.
Regarding `O=C1c2ccccc2C(=O)c2c(NCCNC(=O)C3CCCN3)ccc(NCCNC(=O)C3CCCN3)c21` (configuration not stated), the GI50 with A549 was > 100 µM (inactive); in the experiment with CAKI-1, > 100 µM (inactive); with HCC 2998 it was 35.9 µM (inactive); in the experiment on HCT-116, 2.65 µM (inactive); with KM12 it was 23.2 µM (inactive); in the experiment on LOX IMVI, 0.0415 µM (active). For the same compound, the GI50 with MCF7 was 30.8 µM (inactive); in the experiment on MDA-MB-231, 23.7 µM (inactive); with MDA-MB-435, 55.8 µM (inactive); in the experiment with MDA-N, 46.5 µM (inactive); in the experiment with MOLT-4, 22.1 µM (inactive); in the experiment with NCI-H226 it was > 100 µM (inactive). In addition, the GI50 in the experiment with OVCAR-5 is 51.4 µM (inactive); with SK-MEL-2, > 100 µM (inactive); in the experiment with SN12C it was 46 µM (inactive); in the experiment with SNB-19, 44.1 µM (inactive); in the experiment on SW-620 it was 40.4 µM (inactive); in the experiment with UACC-257 it was > 100 µM (inactive).
For `c1ccc(C(C2=Nc3cccc4cccc(c34)N2)c2ccccc2)cc1`, the GI50 is 37.2 µM (inactive) in the experiment with A549; 22.6 µM (inactive) in the experiment with CAKI-1; 20.6 µM (inactive) with HCC 2998; > 10 µM (inactive) in the experiment with HCT-116; 20.6 µM (inactive) with KM12; 18.7 µM (inactive) with LOX IMVI. Also, the GI50 in the experiment with MCF7 is 31.8 µM (inactive); in the experiment on MDA-MB-231 it was 30.8 µM (inactive); with MDA-MB-435, 25.5 µM (inactive); with MDA-N, 23.4 µM (inactive); in the experiment on NCI-H226, 31.6 µM (inactive); in the experiment with NCI-H460, 24.7 µM (inactive). Besides, the GI50 in the experiment on SK-MEL-2 is 20.9 µM (inactive); in the experiment with SN12C, 14.8 µM (inactive); in the experiment with SNB-19 it was 37.8 µM (inactive); in the experiment with SW-620, 47.3 µM (inactive); with UACC-257 it was 24.5 µM (inactive).
Turning to `[BH3-][P+]1(CC[P@@+]([BH3-])(c2ccccc2)c2ccccc2OC)[C@@H](C)[C@@H](O)[C@H](O)[C@@H]1C` (some centres not stated), the GI50 in the experiment with A498 was 18 µM (inactive); in the experiment on A549, 14.1 µM (inactive); in the experiment on CAKI-1, 15.6 µM (inactive); with HCT-116 it was 17.7 µM (inactive); in the experiment with KM12, 15.8 µM (inactive); with LOX IMVI, 2.44 µM (inactive). Also, the GI50 was 18.2 µM (inactive) in the experiment on MCF7; 16 µM (inactive) with MDA-MB-231; 16.7 µM (inactive) in the experiment on MDA-MB-435; 16 µM (inactive) in the experiment on MDA-N; 20.4 µM (inactive) with MOLT-4; 17.3 µM (inactive) with NCI-H226. Besides, the GI50 with NCI-H460 was 16.4 µM (inactive); in the experiment on OVCAR-5, 18.1 µM (inactive); with SK-MEL-2, 15.7 µM (inactive); in the experiment on SN12C it was 13.4 µM (inactive); in the experiment with SNB-19, 17 µM (inactive); in the experiment with SW-620 it was 16.9 µM (inactive). Further, the GI50 in the experiment with UACC-257 is 4.19 µM (inactive).
On to `Cc1cc(OCc2nc(N)nc(N)c2-c2ccc(Cl)c(Cl)c2)ccc1[N+](=O)[O-]`, for which the GI50 with A498 is 0.103 µM (active); in the experiment on A549, 0.0352 µM (active); in the experiment on CAKI-1, 0.558 µM (active); in the experiment on HCT-116, 0.0502 µM (active); in the experiment on KM12, 0.692 µM (active); in the experiment on LOX IMVI it was 0.0818 µM (active). Moreover, the GI50 in the experiment with MCF7 was 0.262 µM (active); in the experiment on MDA-MB-231, 0.384 µM (active); in the experiment with MDA-MB-435, 0.0721 µM (active); with MDA-N, 0.0776 µM (active); in the experiment with MOLT-4, 0.0933 µM (active); in the experiment on NCI-H226 it was 8.67 µM (inactive). Moreover, the GI50 in the experiment with NCI-H460 is 0.0462 µM (active); in the experiment on OVCAR-5 it was 0.45 µM (active); in the experiment with SK-MEL-2 it was 1.41 µM (inactive); in the experiment on SN12C, 0.726 µM (active); in the experiment on SNB-19 it was 0.743 µM (active); in the experiment with SW-620 it was 0.235 µM (active). In addition, in the experiment on UACC-257, the GI50 was 0.0451 µM (active).
